Test results: patent US10221215B2, “Hydrogen bond surrogate macrocycles as modulators of Ras” (New York University, priority 2011, dated 2019)
Non-standard residues stand in square brackets, D forms with d. Residues, ends and D or L forms follow the SMILES beside them. Aib = CC(C)(N)C(=O)O

Experiment: Solubility of peptides and HBS helices
Format: physicochemical
Protocol: Design of Ras/Sos inhibitors was performed starting with the wild-type Sos929-944 α-H sequence. Additional modifications were introduced in order to improve the solubility of the HBS peptides. Charged residues were introduced at positions not involved in Ras binding. Computational alanine scanning was performed on two separate crystal structures (PDB codes: 1NVW and 1BKD) of the Ras/Sos complex to determine other important binding residues in the α-H helix that may be incorporated in the peptide mimetics. Additionally, non-essential β-branched residues (including threonine) in the wild-type α-H sequence were replaced with suitable residues to afford peptides with higher helical content (Table 1), as it was hypothesized that such modifications would improve α-helicity.

| Solubility | Compound |
| --- | --- |
| partially | CC[C@H](C)[C@H](NC(=O)CN1CC=CCCC(=O)N[C@@H](Cc2ccccc2)C(=O)N[C@@H](CCC(=O)O)C1=O)C(=O)N[C@@H](Cc1ccc(O)cc1)C(=O)N[C@@H](CCCNC(=N)N)C(=O)N[C@H](C(=O)N[C@@H](CC(=O)O)C(=O)N[C@H](C(=O)N[C@@H](CC(C)C)C(=O)N[C@@H](CCCNC(=N)N)C(=O)N[C@H](C(=O)N[C@@H](CCC(=O)O)C(=O)N[C@@H](CCC(=O)O)C(=O)NCC(=O)N[C@@H](CC(N)=O)C(N)=O)[C@@H](C)O)[C@@H](C)CC)[C@@H](C)O [HBS 1] |
| soluble | CC[C@H](C)[C@H](NC(=O)CN1CC=CCCC(=O)N[C@@H](Cc2ccccc2)C(=O)N[C@@H](CCC(=O)O)C1=O)C(=O)N[C@@H](Cc1ccc(O)cc1)C(=O)N[C@@H](CCCNC(=N)N)C(=O)N[C@H](C(=O)N[C@@H](CCC(=O)O)C(=O)N[C@@H](CC(C)C)C(=O)N[C@@H](CC(C)C)C(=O)N[C@@H](CCCCN)C(=O)N[C@@H](C)C(=O)N[C@@H](CCC(=O)O)C(=O)N[C@@H](CCC(=O)O)C(=O)N[C@@H](C)C(=O)N[C@@H](CC(N)=O)C(N)=O)[C@@H](C)O [HBS 6] |
| soluble | CC[C@H](C)[C@H](NC(=O)CN1CC=CCCC(=O)N[C@@H](Cc2ccccc2)C(=O)N[C@@H](CCC(=O)O)C1=O)C(=O)N[C@@H](Cc1ccc(O)cc1)C(=O)N[C@@H](CCCNC(=N)N)C(=O)N[C@@H](CC(C)C)C(=O)N[C@@H](CCC(=O)O)C(=O)N[C@@H](CC(C)C)C(=O)N[C@@H](CC(C)C)C(=O)N[C@@H](CCCCN)C(=O)N[C@@H](C)C(=O)N[C@@H](CCC(=O)O)C(=O)N[C@@H](CCC(=O)O)C(=O)N[C@@H](C)C(=O)N[C@@H](CC(N)=O)C(N)=O [HBS 7] |
| soluble | CC[C@H](C)[C@H](NC(=O)CN1CC=CCCC(=O)N[C@@H](C)C(=O)N[C@@H](CCC(=O)O)C1=O)C(=O)N[C@@H](Cc1ccc(O)cc1)C(=O)N[C@@H](CCCNC(=N)N)C(=O)N[C@@H](CC(C)C)C(=O)N[C@@H](CCC(=O)O)C(=O)N[C@@H](CC(C)C)C(=O)N[C@@H](CC(C)C)C(=O)N[C@@H](CCCCN)C(=O)N[C@@H](C)C(=O)N[C@@H](CCC(=O)O)C(=O)N[C@@H](C)C(=O)N[C@@H](C)C(=O)N[C@@H](C)C(N)=O [HBS 7^mut] |
| soluble | CC[C@H](C)[C@H](NC(=O)CN1CC=CCCC(=O)N[C@@H](Cc2ccccc2)C(=O)N[C@@H](CCC(=O)O)C1=O)C(=O)N[C@@H](Cc1ccc(O)cc1)C(=O)N[C@@H](CCCNC(=N)N)C(=O)N[C@@H](CC(C)C)C(=O)N[C@@H](CCC(=O)O)C(=O)N[C@@H](CC(C)C)C(=O)N[C@@H](CC(C)C)C(=O)N[C@@H](CCCCN)C(N)=O [HBS 8] |
| soluble | CC(C)C[C@H](NC(=O)CN1CC=CCCC(=O)N[C@@H](Cc2ccccc2)C(=O)N[C@@H](CCC(=O)O)C1=O)C(=O)N[C@@H](CC(C)C)C(=O)N[C@@H](CCCNC(=N)N)C(=O)N[C@@H](CC(C)C)C(=O)N[C@@H](Cc1c[nH]c2ccccc12)C(=O)N[C@@H](CC(C)C)C(=O)N[C@@H](CCCNC(=N)N)C(=O)N[C@@H](CCCCN)C(=O)NC(C)(C)C(=O)N[C@@H](CCC(=O)O)C(=O)N[C@@H](CCC(=O)O)C(=O)N[C@@H](C)C(=O)N[C@@H](CC(N)=O)C(N)=O [HBS 9] |
| soluble | CC(C)C[C@H](NC(=O)CN1CC=CCCC(=O)N[C@@H](Cc2ccccc2)C(=O)N[C@@H](CCC(=O)O)C1=O)C(=O)N[C@@H](CC(C)C)C(=O)N[C@@H](CCCNC(=N)N)C(=O)N[C@@H](CC(C)C)C(=O)N[C@@H](Cc1c[nH]c2ccccc12)C(=O)N[C@@H](CC(C)C)C(=O)N[C@@H](CCCNC(=N)N)C(=O)N[C@@H](CCCCN)C(=O)NC(C)(C)C(=O)N[C@@H](CCC(=O)O)C(=O)N[C@@H](CCC(=O)O)C(=O)NC(C)(C)C(=O)N[C@@H](CC(N)=O)C(N)=O [HBS 10] |
| soluble | CC[C@H](C)[C@H](NC(=O)CN1CC=CCCC(=O)N[C@@H](Cc2ccccc2)C(=O)N[C@@H](CCC(=O)O)C1=O)C(=O)N[C@@H](Cc1ccc(O)cc1)C(=O)N[C@@H](CCCNC(=N)N)C(=O)N[C@@H](CC(C)C)C(=O)N[C@@H](CCC(=O)O)C(=O)N[C@@H](CC(C)C)C(=O)N[C@@H](CC(C)C)C(=O)N[C@@H](CCCCN)C(=O)NC(C)(C)C(=O)N[C@@H](CCC(=O)O)C(=O)N[C@@H](CCC(=O)O)C(=O)NC(C)(C)C(=O)N[C@@H](CC(N)=O)C(N)=O [HBS 11] |
| soluble | CC(C)C[C@H](NC(=O)CN1CC=CCCC(=O)N[C@@H](Cc2ccccc2)C(=O)N[C@@H](CCC(=O)O)C1=O)C(=O)N[C@@H](CC(C)C)C(=O)N[C@@H](CCCNC(=N)N)C(=O)N[C@@H](CC(C)C)C(=O)N[C@@H](Cc1c[nH]c2ccccc12)C(=O)N[C@@H](CC(C)C)C(=O)N[C@@H](CCCNC(=N)N)C(=O)N[C@@H](CCCCN)C(=O)N[C@@H](C)C(=O)N[C@@H](CCC(=O)O)C(=O)N[C@@H](CCC(=O)O)C(=O)N[C@@H](C)C(=O)N[C@@H](CC(N)=O)C(N)=O [HBS 12] |
| soluble | CC[C@H](C)[C@H](NC(=O)[C@H](C)N1CC=CCCC(=O)N[C@@H](Cc2ccccc2)C(=O)N[C@@H](CCC(=O)O)C1=O)C(=O)N[C@@H](Cc1ccc(O)cc1)C(=O)N[C@@H](CCCNC(=N)N)C(=O)N[C@@H](CC(C)C)C(=O)N[C@@H](CCC(=O)O)C(=O)N[C@@H](CC(C)C)C(=O)N[C@@H](CC(C)C)C(=O)N[C@@H](CCCCN)C(=O)N[C@@H](C)C(=O)N[C@@H](CCC(=O)O)C(=O)N[C@@H](CCC(=O)O)C(=O)N[C@@H](C)C(=O)N[C@@H](CC(N)=O)C(N)=O [HBS 13] |
| soluble | CC[C@H](C)[C@H](NC(=O)[C@H](C)N1CC=CCCC(=O)N[C@@H](Cc2ccccc2)C(=O)N[C@@H](CCC(=O)O)C1=O)C(=O)N[C@@H](Cc1ccc(O)cc1)C(=O)N[C@@H](CCCNC(=N)N)C(=O)N[C@@H](CC(C)C)C(=O)N[C@@H](CCC(=O)O)C(=O)N[C@H]1CCCCNC(=O)CC[C@@H](C(=O)N[C@@H](CCC(=O)O)C(=O)N[C@@H](C)C(=O)N[C@@H](CC(N)=O)C(N)=O)NC(=O)[C@H](C)NC(=O)[C@H](CCCCN)NC(=O)[C@H](CC(C)C)NC1=O [HBS 15] |
| soluble | CC[C@H](C)[C@H](NC(=O)CN1CC=CCCC(=O)N[C@@H](Cc2ccccc2)C(=O)N[C@@H](CCC(=O)O)C1=O)C(=O)N[C@@H](Cc1ccc(O)cc1)C(=O)N[C@@H](CCCNC(=N)N)C(=O)N[C@@H](CC(C)C)C(=O)N[C@@H](CCC(=O)O)C(=O)N[C@@H](CCCCN)C(=O)N[C@@H](CC(C)C)C(=O)N[C@@H](CCCCN)C(=O)N[C@@H](C)C(=O)N[C@@H](CCC(=O)O)C(=O)N[C@@H](CCC(=O)O)C(=O)N[C@@H](C)C(=O)N[C@@H](CC(N)=O)C(=O)N[C@@H](CCCNC(=N)N)C(=O)N[C@@H](CCCNC(=N)N)C(N)=O [HBS 16] |
| soluble | CC(=O)N[C@@H](Cc1ccccc1)C(=O)N[C@@H](CCC(=O)O)C(=O)NCC(=O)N[C@@H](CC(C)C)C(=O)N[C@@H](CC(C)C)C(=O)N[C@@H](CCCNC(=N)N)C(=O)N[C@@H](CC(C)C)C(=O)N[C@@H](Cc1c[nH]c2ccccc12)C(=O)N[C@@H](CC(C)C)C(=O)N[C@@H](CCCNC(=N)N)C(=O)N[C@@H](CCCCN)C(=O)NC(C)(C)C(=O)N[C@@H](CCC(=O)O)C(=O)N[C@@H](CCC(=O)O)C(=O)NC(C)(C)C(=O)N[C@@H](CC(N)=O)C(N)=O [Peptide 10] (Ac-FEGLLRLWLRK[Aib]EE[Aib]N-NH2; N-terminus assumed) |
| soluble | CC[C@H](C)[C@H](NC(=O)CNC(=O)[C@H](CCC(=O)O)NC(=O)[C@H](Cc1ccccc1)NC(C)=O)C(=O)N[C@@H](Cc1ccc(O)cc1)C(=O)N[C@@H](CCCNC(=N)N)C(=O)N[C@@H](CC(C)C)C(=O)N[C@@H](CCC(=O)O)C(=O)N[C@@H](CC(C)C)C(=O)N[C@@H](CC(C)C)C(=O)N[C@@H](CCCCN)C(=O)NC(C)(C)C(=O)N[C@@H](CCC(=O)O)C(=O)N[C@@H](CCC(=O)O)C(=O)NC(C)(C)C(=O)N[C@@H](CC(N)=O)C(N)=O [Peptide 11] (Ac-FEGIYRLELLK[Aib]EE[Aib]N-NH2; N-terminus assumed) |
| partially | Ac-AEGIYRADILRTEEGN-NH2 (N-terminus assumed) [Peptide 4] |
| partially | Ac-AEGIYRTDILRTEEGN-NH2 (N-terminus assumed) [Peptide 3] |
| soluble | Ac-FEAIYRLEKLKAEEAN-NH2 (N-terminus assumed) [Peptide 15] |
| soluble | Ac-FEAIYRLELLKAEEAN-NH2 (N-terminus assumed) [Peptide 13] |
| soluble | Ac-FEGIYRLELLK-NH2 (N-terminus assumed) [Peptide 8] |
| soluble | Ac-FEGIYRLELLKAEEAN-NH2 (N-terminus assumed) [Peptide 7] |
| soluble | Ac-FEGIYRTDILR-NH2 (N-terminus assumed) [Peptide 5] |
| partially | Ac-FEGIYRTDILRTEEGN-NH2 (N-terminus assumed) [Peptide 1] |
| soluble | Ac-FEGIYRTELLKAEEAN-NH2 (N-terminus assumed) [Peptide 6] |
| soluble | Ac-FEGLLRLWLRKAEEAN-NH2 (N-terminus assumed) [Peptide 12] |
| partially | Ac-FGEGIYRTDILRTEEGN-NH2 (N-terminus assumed) [Peptide 2] |

| Compound | Solubility |
| --- | --- |
| CC[C@H](C)[C@H](NC(=O)CNC(=O)[C@H](Cc1ccccc1)NC(=O)[C@H](Cc1ccccc1)NC(C)=O)C(=O)N[C@@H](Cc1ccc(O)cc1)C(=O)N[C@@H](CC(C)C)C(=O)N[C@H](C(=O)N[C@@H](CC(N)=O)C(=O)N[C@H](C(=O)N[C@@H](CC(C)C)C(=O)N[C@@H](CCCCN)C(=O)N[C@H](C(=O)N[C@@H](CCC(=O)O)C(=O)N[C@@H](CCC(=O)O)C(=O)NCC(=O)N[C@@H](CC(N)=O)C(N)=O)[C@@H](C)O)[C@@H](C)CC)[C@@H](C)O [wt (Sos929-944), reference compound] | insoluble |
